Assay results taken from the supplement of paper PMC10307832.

Assays:
Assay in all cases: relative viability (nuclei count vs DMSO), 5 days (fraction); higher = more cells survive
[1] = compound: Cc1ccc2nc(NCCN)c3ncc(C)n3c2c1 + Nc1nc2[nH]cc(CCc3ccc(C(=O)N[C@@H](CCC(=O)O)C(=O)O)cc3)c2c(=O)[nH]1 [Pemetrexed] (partner 0.2 µM)
How it was run: (§1)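 Cells from lung cancer lines were seeded into 1536-well plates and, one day later, dosed by pin tool. Treatments were either a single drug or a fixed dose of an anchor drug with five library-drug doses (not always all listed) in √10 steps. After 5 days, nuclei were stained in a one-step fixation (final 0.05% Triton X-100, 1% formaldehyde, 1 ug/ml Hoechst) and counted on 4× images, and relative viability is the treated-to-vehicle nuclei ratio, as the median of duplicate plates.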

[2] = compound: Cc1ccc2nc(NCCN)c3ncc(C)n3c2c1 + CCNC(=O)c1noc(-c2cc(C(C)C)c(O)cc2O)c1-c1ccc(CN2CCOCC2)cc1 [Luminespib] (partner 0.01 µM)
How it was run: as §1

Salubrinal + Tozasertib = compound: O=C(/C=C/c1ccccc1)NC(NC(=S)Nc1cccc2cccnc12)C(Cl)(Cl)Cl [Salubrinal] + Cc1cc(Nc2cc(N3CCN(C)CC3)nc(Sc3ccc(NC(=O)C4CC4)cc3)n2)n[nH]1 [Tozasertib] (partner 0.1 µM)
How it was run: as §1

[3] = compound: Cc1ccc2nc(NCCN)c3ncc(C)n3c2c1 + CC(C)C[C@H](NC(=O)[C@H](Cc1ccccc1)NC(=O)c1cnccn1)B(O)O [Bortezomib] (partner 0.002 µM)
How it was run: as §1

Cell Line: UMC-11
- relative viability ([1]; first compound 0.04 µM): 0.858
- relative viability ([1]; first compound 0.1265 µM): 0.744
- relative viability ([1]; first compound 0.4 µM): 0.808
- relative viability ([1]; first compound 1.265 µM): 0.734
- relative viability ([1]; first compound 4 µM): 0.674
- relative viability ([2]; first compound 0.04 µM): 1.02
- relative viability ([2]; first compound 0.1265 µM): 0.834
- relative viability ([2]; first compound 0.4 µM): 1
- relative viability ([2]; first compound 1.265 µM): 0.996
- relative viability ([2]; first compound 4 µM): 0.894
- relative viability (Salubrinal + Tozasertib; first compound 0.08 µM): 0.208
- relative viability (Salubrinal + Tozasertib; first compound 0.253 µM): 0.225
- relative viability (Salubrinal + Tozasertib; first compound 0.8 µM): 0.21
- relative viability (Salubrinal + Tozasertib; first compound 2.53 µM): 0.186
- relative viability (Salubrinal + Tozasertib; first compound 8 µM): 0.189
- relative viability ([3]; first compound 0.04 µM): 0.818
- relative viability ([3]; first compound 0.1265 µM): 0.809
- relative viability ([3]; first compound 0.4 µM): 0.667
- relative viability ([3]; first compound 1.265 µM): 0.795
- relative viability ([3]; first compound 4 µM): 0.671
